Measured values published in patent US20210355104A1, “ADENOSINE RECEPTOR BINDING COMPOUNDS” (Nikang Therapeuticsm Inc., priority 2018, published 2021).
Several values for one entry are separate records, joined by “and”; a condition that tells them apart may be missing. Equal values may be shown once.

Target: Adenosine A2A receptor (Homo sapiens, UniProt P29274)
Assay: cAMP assay in 293A cells stably expressing the adenosine A2A receptor (CGS21680 stimulation, HTRF)
Type: cell-based
Design: expressed in transfected cells; host or cells: 293A cells (Invitrogen, Cat# R705-07) infected with A2A-expressing lentivirus (custom packaged by Biosettia), puromycin selected
Conditions: 293A cells stably expressing A2A receptor; 0.1% BSA; 1 uM CGS21680 stimulation; replicate values separated by /; read-out: cAMP (nM) 0.1% BSA, 1 uM CGS

Chain of Adenosine A2A receptor (P29274 whole entry): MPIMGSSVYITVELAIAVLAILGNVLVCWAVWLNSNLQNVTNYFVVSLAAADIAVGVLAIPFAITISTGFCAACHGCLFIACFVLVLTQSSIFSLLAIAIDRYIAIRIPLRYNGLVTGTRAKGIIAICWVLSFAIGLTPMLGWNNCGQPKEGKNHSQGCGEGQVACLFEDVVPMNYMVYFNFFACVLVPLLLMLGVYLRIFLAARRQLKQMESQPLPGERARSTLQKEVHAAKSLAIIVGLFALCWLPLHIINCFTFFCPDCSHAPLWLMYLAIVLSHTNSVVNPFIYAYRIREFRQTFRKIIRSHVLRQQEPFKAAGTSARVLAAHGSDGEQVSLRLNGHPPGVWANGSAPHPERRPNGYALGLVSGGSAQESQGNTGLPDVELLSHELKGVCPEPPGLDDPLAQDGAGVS

Structure (SMILES) | IC50
Cc1cc(-c2c(OCc3cccc(CN(CC(=O)N(C)C)CC(=O)N(C)C)n3)nc(N)nc2-c2ccc(F)cc2)cc(C(F)F)n1 [Example 436, 2,2′-(((6-(((2-amino-5-(2-(difluoromethyl)-6-methylpyridin-4-yl)-6-(4-fluorophenyl)pyrimidin-4-yl)oxy)methyl)pyridin-2-yl)methyl)azanediyl)bis(N, N-dimethylacetamide)] | 894 nM and 530 nM
Cc1cc(-c2c(OCc3cccc(CN)n3)nc(N)nc2-c2ccc(F)cc2)cc(C(F)F)n1 [Example 412, 4-((6-(aminomethyl)pyridin-2-yl)methoxy)-5-(2-(difluoromethyl)-6-methylpyridin-4-yl)-6-(4-fluorophenyl)pyrimidin-2-amine] | 503 nM and 747 nM
Cc1cc(-c2c(OCc3nc4cccc(C(C)(C)O)c4n3C)nc(N)nc2-c2ccc(F)cc2)cc(C(F)F)n1 [Example 396, 2-(2-(((2-amino-5-(2-(difluoromethyl)-6-methylpyridin-4-yl)-6-(4-fluorophenyl)pyrimidin-4-yl)oxy)methyl)-1-methyl-1H-benzo[d]imidazol-7-yl)propan-2-ol] | 869 nM and 634 nM
Cc1cc(-c2c(OCc3nc(C(C)(C)O)ccc3C(C)(C)O)nc(N)nc2-c2ccc(F)cc2)cc(C(F)F)n1 [Example 438, 2,2-(6-(((2-amino-5-(2-(difluoromethyl)-6-methylpyridin-4-yl)-6-(4-fluorophenyl)pyrimidin-4-yl)oxy)methyl)pyridine-2,5-diyl)bis(propan-2-ol)] | 3180 nM

Same assay, conditions: 293A-A2AR cells, 0.1% BSA, 1 uM CGS; read-out: cAMP (nM) 0.1% BSA, 1 uM CGS

Structure (SMILES) | IC50
Cc1cc(-c2c(OCCc3ccncc3)nc(N)nc2-c2ccc(F)cc2)cc(C(F)F)n1 [Example 348, 5-(2-(difluoromethyl)-6-methylpyridin-4-yl)-4-(4-fluorophenyl)-6-(2-(pyridin-4-yl)ethoxy)pyrimidin-2-amine] | 2620 nM
Cc1cc(-c2c(OCc3nc4c(C(C)(C)O)cccc4n3C)nc(N)nc2-c2ccc(F)cc2)cc(C(F)F)n1 [Example 361, 2-(2-(((2-amino-5-(2-(difluoromethyl)-6-methylpyridin-4-yl)-6-(4-fluorophenyl)pyrimidin-4-yl)oxy)methyl)-1-methyl-1H-benzo[d]imidazol-4-yl)propan-2-ol] | 854 nM and 1110 nM
Cc1cc(-c2c(OCc3nc4ccccc4o3)nc(N)nc2-c2ccc(F)cc2)cc(C(F)F)n1 [Example 342, 4-(benzo[d]oxazol-2-ylmethoxy)-5-(2-(difluoromethyl)-6-methylpyridin-4-yl)-6-(4-fluorophenyl)pyrimidin-2-amine] | 419 nM
Cc1cc(-c2c(OCc3nc4n(n3)CCCC4)nc(N)nc2-c2ccc(F)cc2)cc(C(F)F)n1 [Example 352, 5-(2-(difluoromethyl)-6-methylpyridin-4-yl)-4-(4-fluorophenyl)-6-((5,6,7,8-tetrahydro-[1,2,4]triazolo[1,5-a]pyridin-2-yl)methoxy)pyrimidin-2-amine] | 1790 nM

The next lines start with the values.

IC50 | Structure (SMILES)
11800 nM | Cc1cc(-c2c(OCc3ccc(F)c(C(C)(C)C(=O)O)c3)nc(N)nc2-c2ccc(F)cc2)cc(C(F)F)n1 [Example 367, 2-(5-(((2-amino-5-(2-(difluoromethyl)-6-methylpyridin-4-yl)-6-(4-fluorophenyl)pyrimidin-4-yl)oxy)methyl)-2-fluorophenyl)-2-methylpropanoic acid]
128 nM and 130 nM and 160 nM | Cc1cc(-c2c(OCCN(C)c3nccc(C(C)(C)C#N)n3)nc(N)nc2-c2ccc(F)cc2)cc(C(F)F)n1 [Example 372, 2-(2-((2-((2-amino-5-(2-(difluoromethyl)-6-methylpyridin-4-yl)-6-(4-fluorophenyl)pyrimidin-4-yl)oxy)ethyl)(methyl)amino)pyrimidin-4-yl)-2-methylpropanenitrile]

Same assay, conditions: 293A-A2AR cells, 0.1% BSA, 1 uM CGS; values separated by / are repeat determinations; read-out: cAMP (nM) 0.1% BSA, 1 uM CGS

Structure (SMILES) | IC50
Cc1cc(-c2c(OCCN(C)c3ccncn3)nc(N)nc2-c2ccc(F)cc2)cc(C(F)F)n1 [Example 151, 5-(2-(difluoromethyl)-6-methylpyridin-4-yl)-4-(4-fluorophenyl)-6-(2-(methyl(pyrimidin-4-yl)amino)ethoxy)pyrimidin-2-amine] | > 25000 nM
